From US20250313535A1, “ALPHA 4 BETA 7 INTEGRIN MODULATORS AND USES THEREOF” (DICE MOLECULES SV, INC., priority 2022, published 2025)

How the values were obtained:
Format in all cases: cell-based
[1] = target: T1, α4β1 integrin (Homo sapiens (Human), UniProt P05556+P13612); assay: Integrin Adhesion Assay: Protocol 2 (VCAM-coated plate, Jurkat cells, CellTiter GLO readout); conditions: determined by at least one of the assays described (protocol not specified)
Description: α4β7 and α4β1 inhibition was evaluated in vitro using at least one of the following procedures:
Integrin Adhesion Assay: Protocol 2
VCAM (R&D Systems, 0.1 ug) was diluted in 50 μL PBS, added to each well of an opaque ELISA plate (Thermo), and incubated overnight at 4° C. Coated plates were washed once with PBS and then blocked with 200 μL of assay buffer (10 mM HEPES, 150 mM NaCl, 1 mM MnCl2, 0.1 mM CaCl2), 1% BSA) for 1 hour at 37° C. and 5% CO2. After incubation, buffer was aspirated from the plates and 50 μL of fresh assay buffer was added. Compounds were added by compounds dispenser (Tecan) and DMSO concentration was normalized to 1% across each plate. 50 μL of Jurkat cells (2×10^6 per mL) were added to each well and the plates were incubated for 1 hour at 37° C. and 5% CO2. After incubation, plates were allowed to cool to RT for 10 minutes before being washed four times in assay buffer by an automated plate washer (BioTek). After washing, 100 μL of a 1:1 mixture of assay buffer and CellTiter GLO 2.0 reagent (Promega) were added to each well. Plates were mixed for 2 minutes at 1000 rpm and then allowed to incubate an additional 10 minutes before reading out luminescence on a Tecan Spark plate reader. Raw data was converted to percent inhibition based on DMSO only and control compound wells, and curves were analyzed by 4-parameter fit within Dotmatics software.

[2] = target: T2, α4β7 integrin (Homo sapiens (Human), UniProt P13612+P26010); assay: Integrin Adhesion Assay: Protocol 1 (MAdCAM-coated plate, RPMI-8866 cells, CellTiter GLO readout)
In short: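 RPMI-8866 cells (2×10^6 per mL) added with compounds (1% DMSO) to MAdCAM-coated wells blocked in HEPES/NaCl buffer with 1 mM MnCl2, 0.1 mM CaCl2, 1% BSA; 1 h at 37° C, 5% CO2. After four washes, bound cells read by CellTiter GLO luminescence; % inhibition vs DMSO and control wells, 4-parameter fit.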

[3] = target: T1, α4β1 integrin; assay: Integrin Adhesion Assay: Protocol 5 (VCAM-coated plate, RPMI-8866 cells with stable LOF mutation of the ITGB7 gene)
In short: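 RPMI-8866 B cells with CRISPR/Cas9 ITGB7 knockout (clonal, verified by flow cytometry) adhered to VCAM-coated wells for 1 h at 37° C in HEPES/NaCl buffer with 1 mM MnCl2, 0.1 mM CaCl2, 1% BSA, 1% DMSO. Bound cells quantified by CellTiter-Glo luminescence after washing; % inhibition versus DMSO and control, 4-parameter fit.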

[4] = target: T2, α4β7 integrin; assay: Integrin Adhesion Assay: Protocol 4 (MAdCAM-coated plate, RPMI-8866 cells with stable LOF mutation of the ITGB1 gene)
In short: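 RPMI-8866 cells with CRISPR/Cas9 knockout of ITGB1 (2×10^6/mL) were added to MAdCAM-coated wells with compound (1% DMSO) in HEPES/NaCl buffer with 1 mM MnCl2, 0.1 mM CaCl2 and 1% BSA, then incubated 1 h at 37 °C. After four washes, adherent cells were quantified by CellTiter-Glo luminescence. Percent inhibition versus DMSO and control compound was fitted to 4-parameter curves.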

[5] = integrin adhesion assay, determined by at least one of the assays described (protocol not specified)
[6] = RPMI-8866 cells with stable LOF mutation of the ITGB7 gene, read-out: Mean IC50 α4β1 KO^b
[7] = RPMI-8866 cells with stable LOF mutation of the ITGB1 gene, read-out: Mean IC50 α4β7 KO^a

T2 sequence (P13612 34-1032): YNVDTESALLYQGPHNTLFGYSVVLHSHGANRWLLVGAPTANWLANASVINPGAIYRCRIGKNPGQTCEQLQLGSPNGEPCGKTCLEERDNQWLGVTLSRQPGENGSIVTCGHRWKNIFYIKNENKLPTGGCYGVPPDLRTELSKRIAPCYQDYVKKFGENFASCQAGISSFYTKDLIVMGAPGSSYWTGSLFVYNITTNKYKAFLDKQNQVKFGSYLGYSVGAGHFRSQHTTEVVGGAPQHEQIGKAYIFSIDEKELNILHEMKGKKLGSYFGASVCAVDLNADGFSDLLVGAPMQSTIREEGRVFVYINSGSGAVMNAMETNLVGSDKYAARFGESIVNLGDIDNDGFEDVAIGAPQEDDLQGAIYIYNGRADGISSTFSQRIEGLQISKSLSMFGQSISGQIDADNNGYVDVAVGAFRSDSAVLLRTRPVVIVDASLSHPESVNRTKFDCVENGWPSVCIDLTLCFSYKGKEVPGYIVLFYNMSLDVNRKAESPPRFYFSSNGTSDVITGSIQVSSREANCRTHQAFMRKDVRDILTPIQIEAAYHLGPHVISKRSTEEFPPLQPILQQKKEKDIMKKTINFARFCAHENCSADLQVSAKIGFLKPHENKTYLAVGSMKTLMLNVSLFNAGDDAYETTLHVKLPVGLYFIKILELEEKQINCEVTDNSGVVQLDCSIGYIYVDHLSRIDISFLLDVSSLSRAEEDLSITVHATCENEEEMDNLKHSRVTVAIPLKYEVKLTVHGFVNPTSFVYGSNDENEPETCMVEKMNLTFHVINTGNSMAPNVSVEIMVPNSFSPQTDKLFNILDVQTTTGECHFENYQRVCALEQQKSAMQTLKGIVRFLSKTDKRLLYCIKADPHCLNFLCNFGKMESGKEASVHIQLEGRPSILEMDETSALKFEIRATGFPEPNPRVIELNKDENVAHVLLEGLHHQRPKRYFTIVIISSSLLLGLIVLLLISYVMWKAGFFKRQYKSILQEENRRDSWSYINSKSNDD
T2 sequence (P26010 20-798): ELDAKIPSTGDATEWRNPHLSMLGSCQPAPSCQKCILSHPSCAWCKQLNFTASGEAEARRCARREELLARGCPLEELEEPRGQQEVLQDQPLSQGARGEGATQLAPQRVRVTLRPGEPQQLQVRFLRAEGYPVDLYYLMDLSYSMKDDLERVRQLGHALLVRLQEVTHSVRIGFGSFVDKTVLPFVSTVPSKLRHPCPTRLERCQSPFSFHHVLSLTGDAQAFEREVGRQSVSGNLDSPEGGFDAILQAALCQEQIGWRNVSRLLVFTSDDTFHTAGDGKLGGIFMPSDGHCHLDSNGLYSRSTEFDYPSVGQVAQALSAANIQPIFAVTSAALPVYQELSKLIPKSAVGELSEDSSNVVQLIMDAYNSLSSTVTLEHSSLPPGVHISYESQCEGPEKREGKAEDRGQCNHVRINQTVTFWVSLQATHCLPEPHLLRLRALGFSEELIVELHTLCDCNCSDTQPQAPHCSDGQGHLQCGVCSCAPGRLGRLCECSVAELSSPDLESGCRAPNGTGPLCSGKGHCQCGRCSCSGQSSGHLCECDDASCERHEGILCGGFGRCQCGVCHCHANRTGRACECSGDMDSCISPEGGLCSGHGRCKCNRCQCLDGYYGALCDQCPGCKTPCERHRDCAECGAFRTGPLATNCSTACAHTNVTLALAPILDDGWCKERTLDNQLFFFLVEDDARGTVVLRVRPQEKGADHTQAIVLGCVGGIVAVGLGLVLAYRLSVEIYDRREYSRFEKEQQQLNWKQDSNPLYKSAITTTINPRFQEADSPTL
T1 sequence (P13612 34-1032): as the sequence (P13612 34-1032) above
T1 sequence (P05556 21-798): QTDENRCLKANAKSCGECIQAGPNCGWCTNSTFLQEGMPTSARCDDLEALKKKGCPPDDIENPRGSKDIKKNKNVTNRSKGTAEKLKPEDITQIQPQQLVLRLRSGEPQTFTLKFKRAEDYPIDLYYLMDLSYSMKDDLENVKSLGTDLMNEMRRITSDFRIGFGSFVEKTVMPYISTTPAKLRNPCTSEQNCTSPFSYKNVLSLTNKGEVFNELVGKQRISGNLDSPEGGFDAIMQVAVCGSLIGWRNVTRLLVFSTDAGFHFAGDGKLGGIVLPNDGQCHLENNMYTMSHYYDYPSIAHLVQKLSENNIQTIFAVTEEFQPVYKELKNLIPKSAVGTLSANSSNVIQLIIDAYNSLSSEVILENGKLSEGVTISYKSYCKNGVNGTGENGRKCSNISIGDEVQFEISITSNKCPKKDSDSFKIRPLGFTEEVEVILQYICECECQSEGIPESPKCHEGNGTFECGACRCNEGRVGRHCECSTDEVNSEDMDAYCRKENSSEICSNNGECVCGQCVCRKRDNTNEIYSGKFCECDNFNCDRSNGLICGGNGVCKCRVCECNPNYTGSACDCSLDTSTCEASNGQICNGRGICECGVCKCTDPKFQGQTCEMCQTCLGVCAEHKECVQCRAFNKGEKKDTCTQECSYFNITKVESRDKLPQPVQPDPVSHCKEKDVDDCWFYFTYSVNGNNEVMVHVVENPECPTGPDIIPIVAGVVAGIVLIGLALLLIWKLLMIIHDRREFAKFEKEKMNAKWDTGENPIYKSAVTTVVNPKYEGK

Row | SMILES | IC50 [1] [nM] | IC50 [2, 5] [nM] | other results
1 | Cn1ccc(=O)n(-c2cccc3c(C[C@H](NC(=O)c4c(F)cc(N5CCOC[C@@H]5C(F)(F)F)cc4CN4CCOCC4)C(=O)O)cccc23)c1=O [Compound 20] | 100 to 1000 | < 10 | 
2 | Cn1ccc(C(F)(F)F)c(-c2nccc3c(C[C@H](NC(=O)c4c(F)cc(N5CCOCC56CC6)cc4F)C(=O)O)cccc23)c1=O [Compound 217] | > 1000 | < 10 | 
3 | Cn1c(=O)ccn(-c2cccc3c(C[C@H](NC(=O)c4c(F)cccc4F)C(=O)O)cccc23)c1=O [Compound 4] | > 1000 | 10 to 100 | 
4 | Cn1ccc(C(F)(F)F)c(-c2cccc3c(C[C@H](OCc4c(F)cccc4F)C(=O)O)cccc23)c1=O [Compound 80] | > 1000 | > 1000 | 
5 | Cn1ccc(=O)n(-c2cccc3c(C[C@H](NC(=O)c4c(F)cc(C#N)cc4F)C(=O)O)cccc23)c1=O [Compound 131] | 100 to 1000 | 10 to 100 | 
6 | COCCN1CCC(C)(C(=O)N[C@@H](Cc2cccc3c(-n4c(=O)ccn(C)c4=O)cccc23)C(=O)O)CC1 [Compound 159] | > 1000 | 100 to 1000 | 
7 | Cn1cc(CCN2CC(F)C2)c(=O)n(-c2cccc3c(C[C@H](NC(=O)c4c(F)cccc4F)C(=O)O)cccc23)c1=O [Compound 118] | > 1000 | 10 to 100 | 
8 | Cn1ccc(C(F)(F)F)c(-c2nccc3c(C[C@H](NC(=O)c4c(CN5CCOCC5)cc(N5CCOC[C@@H]5C(F)(F)F)cc4C(F)(F)F)C(=O)O)cccc23)c1=O [Compound 227] | > 1000 | > 1000 | 
9 | Cn1ccc(=O)n(-c2cccc3c(C[C@H](NC(=O)c4c(F)cc(C(F)(F)F)cc4F)C(=O)O)cccc23)c1=O [Compound 26] | > 1000 | 10 to 100 | 
10 | O=C(N[C@@H](Cc1cccc2c(-n3c(=O)ccc4cnccc43)cccc12)C(=O)O)c1c(F)cccc1F [Compound 2] | > 1000 | < 10 | 
11 | Cn1ccc(=O)n(-c2cccc3c(C[C@H](NC(=O)C4(C)CCN(C(=O)C(F)F)CC4)C(=O)O)cccc23)c1=O [Compound 55] | > 1000 | 100 to 1000 | 
12 | CC(C)Oc1cc(F)c(C(=O)N[C@@H](Cc2cccc3c(-n4c(=O)ccn(C)c4=O)cccc23)C(=O)O)c(F)c1 [Compound 30] | > 1000 | 10 to 100 | 
13 | Cn1ccc(=O)n(-c2cccc3c(C[C@H](NC(=O)c4ccc(C(=O)NCCCCN)nc4)C(=O)O)cccc23)c1=O [Compound 24] | > 1000 | > 1000 | 
14 | CN1CCN(c2cc(F)c(C(=O)N[C@@H](Cc3cccc4c(-c5c(C(F)(F)F)ccn(C)c5=O)nccc34)C(=O)O)c(F)c2)[C@@H](C(F)(F)F)C1 [Compound 249] | > 1000 | 10 to 100 | 
15 | Cn1cc(CCO)c(=O)n(-c2cccc3c(C[C@H](NC(=O)c4c(F)cccc4F)C(=O)O)cccc23)c1=O [Compound 137] | > 1000 | 10 to 100 | 
16 | CN(C)CCc1cc(=O)n(-c2cccc3c(C[C@H](NC(=O)c4c(F)cccc4F)C(=O)O)cccc23)c(=O)n1C [Compound 116] | > 1000 | 10 to 100 | 
17 | Cn1ccc(C(F)(F)F)c(-c2nccc3c(C[C@H](NC(=O)c4cc(F)cc(CSc5ccccc5)c4)C(=O)O)cccc23)c1=O [Compound 229] | > 1000 | > 1000 | 
18 | Cn1ccc(=O)n(-c2cccc3c(C[C@H](NC(=O)[C@@H]4[C@@H]5CC[C@H]4CN(CC(F)(F)F)C5)C(=O)O)cccc23)c1=O [Compound 155] | > 1000 | > 1000 | 

Row | SMILES | IC50 [1] [nM] | IC50 [2, 5] [nM] | other results
19 | Cn1ccc(=O)n([C@@H]2CCc3c(C[C@H](NC(=O)c4c(F)cccc4F)C(=O)O)cccc32)c1=O (single isomer, unassigned) [Compound 281] | > 1000 | 10 to 100 | 
20 | Cn1ccc(=O)n(-c2cccc3c(C[C@H](NC(=O)C45CCC(C(F)(F)F)(CC4)CC5)C(=O)O)cccc23)c1=O [Compound 165] | > 1000 | 100 to 1000 | 
21 | Cn1ccc(C(F)(F)F)c(-c2nccc3c(C[C@H](NC(=O)c4c(F)cccc4C(F)(F)F)C(=O)O)cccc23)c1=O [Compound 258] | > 1000 | 100 to 1000 | 
22 | O=C(N[C@@H](Cc1cccc2c(-c3nccc4ccncc34)cccc12)C(=O)O)c1c(F)cc(N2CCOC[C@@H]2C(F)(F)F)cc1F [Compound 23] | > 1000 | < 10 | 
23 | Cn1ccc(C(F)(F)F)c(-c2nccc3c(C[C@H](NC(=O)c4c(F)cc(N5CCOC[C@@H]5C(F)(F)F)cc4F)C(=O)O)cccc23)c1=O [Compound 214] | > 1000 | < 10 | 
24 | Cn1ccc(=O)n(-c2cccc3c(C[C@H](NC(=O)c4c(F)cc5c(cnn5CC(F)(F)F)c4F)C(=O)O)cccc23)c1=O [Compound 126] | 100 to 1000 | < 10 | 
25 | Cn1ccc(C(F)(F)F)c(-c2nccc3c(C[C@H](NC(=O)c4c(F)cc(N5CCOC[C@@H]5C(F)(F)F)cc4CN4CCOCC4)C(=O)O)cccc23)c1=O [Compound 245] | > 1000 | < 10 | 
26 | CN1CCN(c2cc(F)c(C(=O)N[C@@H](Cc3cccc4c(-n5c(=O)ccn(C)c5=O)cccc34)C(=O)O)c(F)c2)[C@@H](C(F)(F)F)C1 [Compound 21] | > 1000 | 10 to 100 | 
27 | Cn1c(=O)c(-c2cccc3c(C[C@H](NC(=O)c4c(F)cc(C5CCOCC5)cc4F)C(=O)O)cccc23)c(C(F)(F)F)c2ccccc21 [Compound 373] |  |  | IC50 [3, 6]: > 1000 nM; IC50 [4, 7]: 100 to 1000 nM; IC50 [2]: 100 to 1000 nM
28 | COc1ccc(CN(C)C)c(OC)c1-c1cccc2c(C[C@H](NC(=O)c3c(F)cccc3CN3CCC(F)(F)CC3)C(=O)O)cccc12 [Compound 452] |  |  | IC50 [3, 6]: 100 to 1000 nM; IC50 [4, 7]: < 10 nM; IC50 [2]: < 10 nM
29 | Cn1c(=O)c(-c2cccc3c(C[C@H](NC(=O)c4c(F)cccc4CN4CCC(F)(F)C4)C(=O)O)cccc23)c(C(F)(F)F)c2ccccc21 [Compound 456] |  |  | IC50 [3, 6]: > 1000 nM; IC50 [4, 7]: 10 to 100 nM; IC50 [2]: 10 to 100 nM
30 | Cc1cccc(F)c1C(=O)N[C@@H](Cc1cccc2c(-c3c(C(F)(F)F)c4ccccc4n(C)c3=O)cccc12)C(=O)O [Compound 355] |  |  | IC50 [3, 6]: > 1000 nM; IC50 [4, 7]: 10 to 100 nM; IC50 [2]: 10 to 100 nM
31 | Cn1c(=O)c(-c2cccc3c(C[C@H](NC(=O)[C@]4(C(F)(F)F)CC[C@@H](N5CCOC[C@@H]5C(F)(F)F)CC4)C(=O)O)cccc23)c(C(F)(F)F)c2ccccc21 [Compound 422] |  |  | IC50 [3, 6]: > 1000 nM; IC50 [4, 7]: 100 to 1000 nM; IC50 [2]: 10 to 100 nM
32 | CCOCc1cc(OC)c(-c2cccc3c(C[C@H](NC(=O)c4c(C)cccc4F)C(=O)O)cccc23)c(OC)c1 [Compound 448] |  |  | IC50 [3, 6]: 100 to 1000 nM; IC50 [4, 7]: < 10 nM; IC50 [2]: < 10 nM
33 | CN(C)Cc1ccc2c(c1)c(C(F)(F)F)c(-c1cccc3c(C[C@H](NC(=O)c4c(F)cccc4F)C(=O)O)cccc13)c(=O)n2C [Compound 697] |  |  | IC50 ([3]; Protocol 5, RPMI-8866 cells with LOF mutation of ITGB7, VCAM, read-out: Mean IC50 α4β1 KO): 100 to 1000 nM; IC50 ([4]; Protocol 4, RPMI-8866 cells with LOF mutation of ITGB1, MAdCAM, read-out: Mean IC50 α4β7 KO): < 10 nM; IC50 ([2]; protocol not given): < 10 nM
34 | Cc1cccc(C)c1-c1ccc(F)c(C(=O)N[C@@H](Cc2cccc3c(-c4c(C(F)(F)F)c5ccccc5n(C)c4=O)cccc23)C(=O)O)c1F [Compound 307] |  |  | IC50 [3, 6]: > 1000 nM; IC50 [4, 7]: 100 to 1000 nM; IC50 [2]: 100 to 1000 nM
35 | CN(C)Cc1cccc2c(-c3cccc4c(C[C@H](NC(=O)[C@]5(C)CC[C@H](N6CCOC[C@@H]6C(F)(F)F)CC5)C(=O)O)cccc34)nccc12 (single isomer, unassigned) [Compound 419] |  |  | IC50 [3, 6]: > 1000 nM; IC50 [4, 7]: 10 to 100 nM; IC50 [2]: 10 to 100 nM
